# According to paper PMC7351026, “Serum Half-Lives for Short- and Long-Chain Perfluoroalkyl Acids after Ceasing Exposure from Drinking Water Contaminated by Firefighting Foam” (Environmental Health Perspectives, 2020):
# Assays:
# [1] = Individual serum elimination rate and half-life (linear regression per employee); conditions: individual estimate; for half-life: human, serum, oral, HL (half-life)
# In short: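 One-compartment, first-order model: for each employee and PFAS, the slope β of log serum concentration versus elapsed days (from clean water supply, over five samplings) gave k = −β and half-life = ln2/k. A positive slope left the half-life undetermined.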
# [2] = PFAS levels in serum samples of airport employees (LC/MS/MS)
# In short: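 LC/MS/MS quantification (BEH C18, 5 mM ammonium acetate water:methanol to methanol gradient) after protein precipitation of 25 μL serum with isotopically labeled internal standards, FBS-matrix calibration. Samples stored at −80°C, collected at monthly intervals from September 2018 and run together in a single batch.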
# [3] = 1st sampling (September 2018), count 17
# [4] = 2nd sampling (October 2018), count 17
# [5] = 3rd sampling (November, 2018), count 17
# [6] = 4th sampling (December 2018), count 16
# [7] = 5th sampling (January 2019), count 16
# [8] = first serum samples, all 26 airport employees
# [9] = median of first serum samples, all 26 airport employees
structure (smiles),measurement,setting,value
"O=C(O)C(F)(F)C(F)(F)C(F)(F)C(F)(F)C(F)(F)C(F)(F)C(F)(F)F [PFOA, perfluorooctanoic acid]",half-life,"[1]; subject 1, 5 samples",877 days
same,half-life,"[1]; subject 2, 5 samples",1060 days
same,half-life,"[1]; subject 3, 5 samples",438 days
same,half-life,"[1]; subject 4, 5 samples",840 days
same,half-life,"[1]; subject 5, 5 samples",804 days
same,half-life,"[1]; subject 6, 4 samples",1060 days
same,half-life,"[1]; subject 7, 5 samples",584 days
same,half-life,"[1]; subject 9, 5 samples",694 days
same,half-life,"[1]; subject 10, 5 samples",767 days
same,half-life,"[1]; subject 11, 5 samples",548 days
same,half-life,"[1]; subject 12, 5 samples",365 days
same,half-life,"[1]; subject 13, 5 samples",584 days
same,half-life,"[1]; subject 14, 4 samples",584 days
same,half-life,"[1]; subject 15, 5 samples",402 days
same,half-life,"[1]; subject 16, 5 samples",986 days
same,half-life,"[1]; subject 17, 5 samples",438 days
same,Elimination rate,"[1]; subject 1, 5 samples",0.3 yearly
same,Elimination rate,"[1]; subject 2, 5 samples",0.2 yearly
same,Elimination rate,"[1]; subject 3, 5 samples",0.6 yearly
same,Elimination rate,"[1]; subject 4, 5 samples",0.3 yearly
same,Elimination rate,"[1]; subject 5, 5 samples",0.3 yearly
same,Elimination rate,"[1]; subject 6, 4 samples",0.2 yearly
same,Elimination rate,"[1]; subject 7, 5 samples",0.4 yearly
same,Elimination rate,"[1]; subject 8, 5 samples",0.007 yearly
same,Elimination rate,"[1]; subject 9, 5 samples",0.4 yearly
same,Elimination rate,"[1]; subject 10, 5 samples",0.3 yearly
same,Elimination rate,"[1]; subject 11, 5 samples",0.5 yearly
same,Elimination rate,"[1]; subject 12, 5 samples",0.7 yearly
same,Elimination rate,"[1]; subject 13, 5 samples",0.4 yearly
same,Elimination rate,"[1]; subject 14, 4 samples",0.4 yearly
same,Elimination rate,"[1]; subject 15, 5 samples",0.6 yearly
same,Elimination rate,"[1]; subject 16, 5 samples",0.3 yearly
same,Elimination rate,"[1]; subject 17, 5 samples",0.6 yearly
same,"Serum PFAS level, 25 percentile",[2]; [3],8.7
same,"Serum PFAS level, 75 percentile",[2]; [3],16
same,"Serum PFAS level, Max",[2]; [3],31
same,"Serum PFAS level, Median",[2]; [3],13
same,"Serum PFAS level, Min",[2]; [3],5.0
same,"Serum PFAS level, 25 percentile",[2]; [4],8.3
same,"Serum PFAS level, 75 percentile",[2]; [4],14
same,"Serum PFAS level, Max",[2]; [4],28
same,"Serum PFAS level, Median",[2]; [4],11
same,"Serum PFAS level, Min",[2]; [4],4.1
same,"Serum PFAS level, 25 percentile",[2]; [5],7.9
same,"Serum PFAS level, 75 percentile",[2]; [5],14
same,"Serum PFAS level, Max",[2]; [5],28
same,"Serum PFAS level, Median",[2]; [5],11
same,"Serum PFAS level, Min",[2]; [5],4.6
same,"Serum PFAS level, 25 percentile",[2]; [6],7.5
same,"Serum PFAS level, 75 percentile",[2]; [6],13
same,"Serum PFAS level, Max",[2]; [6],27
same,"Serum PFAS level, Median",[2]; [6],10
same,"Serum PFAS level, Min",[2]; [6],4.3
same,"Serum PFAS level, 25 percentile",[2]; [7],8.0
same,"Serum PFAS level, 75 percentile",[2]; [7],14
same,"Serum PFAS level, Max",[2]; [7],27
same,"Serum PFAS level, Median",[2]; [7],10
same,"Serum PFAS level, Min",[2]; [7],4.4
same,"Serum level in the first samples, median (range)",[2]; all 26 airport employees,9.1 (2.9–31) ng/mL
same,"PFAS in first serum sample, median (range)","[2]; employees participated in first blood sampling and repeated blood and urine sampling, N=17",13 (5.0–31) ng/mL
same,"PFAS in first serum sample, median (range)","[2]; employees participated in first blood sampling only, N=9, 11-14 d after end of exposure",6.5 (2.9–11) ng/mL
same,"Initial serum PFAS level, max",[2]; females (N=7),20 ng/mL
same,"Initial serum PFAS level, median",[2]; females (N=7),6.7 ng/mL
same,"Initial serum PFAS level, min",[2]; females (N=7),5.0 ng/mL
same,"Relative composition of PFAS in serum, molar concentration basis",[2]; [8],8.1%
same,"Relative composition of PFAS in serum, weight basis",[2]; [8],8.2%
same,"Initial serum PFAS level, Max",[2]; males (N=19),31 ng/mL
same,"Initial serum PFAS level, Min",[2]; males (N=19),2.9 ng/mL
same,"Initial serum PFAS level, median",[2]; males (N=19),11 ng/mL
same,"Serum concentration, molar basis",[2]; [9],0.022
same,"Serum concentration, weight basis",[2]; [9],9.1
same,"Serum level, median (range)","[2]; second to fifth samplings, 17 airport employees",10 (4.1–28) ng/mL
